Here are results for five compounds from paper PMC5833777, “Lup-20(29)-en-3β,28-di-yl-nitrooxy acetate affects MCF-7 proliferation through the crosstalk between apoptosis and autophagy in mitochondria” (Cell Death & Disease, 2018).

For series [1] the following is noted: for coefficient of the heart, liver, spleen, and kidney to the body weight: after 11 days of exposure; for body weight changes: during 11 days of exposure; for ALT/GPT / AST/GOT / BUN / CRE / UA: serum, after 11 days i.p., N = 8, mean ± S.
The next series concerns HeLa. In words: CCK-8 cell proliferation assay, HeLa. The class given is cell-based. The note with it: Homo sapiens, 48 h. Here is the method:
(§1) Fig. 2 NBT and BT induced cell death in HeLa, A549, and MCF-7 cell lines. a Effects of BT on the proliferation of MCF-7, HeLa, and A549 cells. Cells (5 × 10^3) were seeded in a 96-well plate for 24 h and then treated with increased concentrations of BT for 48 h. The cell viability was evaluated by using CCK-8 assay. b MCF-7, HeLa, and A549 cells (5 × 10^3) were seeded in a 96-well plate for 24 h and were treated with known concentrations of NBT for 48 h. c MCF-7 cells (5 × 10^3) were seeded in a 96-well plate for 24 h and then were treated with known concentrations of NBT for 24 or 48 h. The cell viability was evaluated by using CCK-8 assay. d MCF10A, BEAS-2B, and L-02 cells (5 × 10^3) were seeded in a 96-well plate for 24 h and were treated with 6, 12, and 24 μM concentrations of NBT for 24 or 48 h. The cell viability was evaluated by using CCK-8 assay.
(§2) MCF-7, HeLa, A549, BEAS-2B, MCF10A, and L-02 cell lines were purchased from the American Type Culture Collection (ATCC) (Rockville, Maryland, USA). […]
(§3) Cells were grown in 96-well plates at a density of 5 × 10^3 cells/100 μL for 24 h, and then various concentrations of BT or NBT were added for 24 or 48 h. […] Optical density was measured at 450 nm by using a multimode plate reader (PerkinElmer EnSpire, USA).

The next series relates to A549. In words: CCK-8 cell proliferation assay, A549. Type of series: cell-based. The note with it: Homo sapiens, 48 h. How it is done: as §1, §2, §3
A further series has as its system MCF-7. In words: CCK-8 cell proliferation assay, MCF-7. The class given is cell-based. The note with it: Homo sapiens, MCF7, 48 h. How it is done:
as §1, §2, §3

The next series has as its system MCF-7 xenograft. Briefly: In vivo antitumor efficacy on MCF-7 tumor-bearing nude mice (tumor volume, H&E, TUNEL). Also noted: species or system female BALB/c nude mice. To be noted: for tumor growth compared with the control: i.p. daily for 11 days, NBT 100 mg/kg, BT 100 mg/kg, 5-FU 22 mg/kg. From the text:
Representative images are shown at ×400 magnification. Scale bar: 100 μm. Data represent mean ± SD of three independent experiments
Tumor samples were fixed in 10% formalin, paraffinized, and sectioned into 4-μm sections, which were stained with H&E according to standard methods.
Tumor samples were fixed in 10% formalin, paraffinized, and sectioned into 4-μm sections, which were stained with FITC-POD according to standard methods.

A further series deals with MCF-7 cells. Briefly: Western blots of MCF-7 cell extracts. The class given is cell-based. How it is done:
MCF-7 cells treated with NBT and/or CQ for 24 h were harvested, washed twice with cold PBS, and then fractionated into cytosolic and mitochondrial fractions by using a Qproteome Mitochondria Isolation Kit (Qiagen, Germany) following the manufacturer’s protocol.
MCF-7 cells treated with NBT and/or CQ for 24 h were lysed in cell lysis buffer containing 1% PMFS for 30 min on ice and centrifuged at 12,000 r.p.m. for 5 min at 4 °C. Then, the protein was quantified by using a BCA Protein Assay Kit (BestBio, Shanghai, China).
Total cell extracts (50 μg) were separated by using SDS-PAGE at 120 V for 1.5 h at room temperature and then eletrotransferred onto PVDF membranes at 300 mA for 1 h at 4 °C. The membranes were washed three times with TBST each for 10 min, blocked with 5% nonfat dry milk in TBST for 2 h at room temperature, rinsed with TBST, incubated with primary antibodies overnight at 4 °C, washed three times with TBST, incubated with HRP-linked anti-IgG for 1 h at room temperature, and then washed three times as before. At the same time, β-actin, GAPDH, and tubulin acted as the control. Afterward, the chemiluminescent bands were analyzed using Image Lab™ Software on ChemiDoc XRS + (Bio-Rad, USA).

Setting [2] is: MCF-7, 24 h, NBT 6-24 μM, Rapa 0.25 μM, NBT 12 μM + CQ 40 μM.

For `C=C(C)[C@@H]1CC[C@]2(CO)CC[C@]3(C)[C@H](CC[C@@H]4[C@@]5(C)CC[C@H](O)C(C)(C)[C@@H]5CC[C@]43C)[C@@H]12` [BT, Betulin], the “safety after 11 days of administration” value in series [1] (100 mg/kg i.p., nude mice) is “safe”. Besides, in series [1], the “coefficient of the heart, liver, spleen, and kidney to the body weight” value is “no significant differences”; the body weight changes entry is listed as “no significant differences”; the ALT/GPT was 106.33 ± 24.27 IU/L; the AST/GOT was found to be 183.42 ± 39.98 IU/L. Moreover, in series [1], the BUN came to 10.13 ± 3.04 mmol/L, the CRE was 45.10 ± 6.43 µmol/L and the UA amounted to 130.18 ± 25.22 µmol/L. In the series on HeLa, this compound had an IC50 of 288 ± 12.3 µM. In the series with A549, the inhibition at 500 µM is no more than 40%. Besides, the inhibition at 500 µM in the series with MCF-7 was no more than 40%. The “HE staining of tumors” value with MCF-7 xenograft (100 mg/kg i.p., 11 days) is “fibrosis, necrosis, and inflammatory cell infiltration”. Further, the “tumor growth compared with the control” value in the series with MCF-7 xenograft is reported as “minimal reduction in tumor growth”.
On to `CCN(CC)CCCC(C)Nc1ccnc2cc(Cl)ccc12` (stereo not drawn) [CQ, Chloroquine, reference compound], for which the “p62 level increased by” value with MCF-7 cells (MCF-7, 40 μM, 24 h) was determined as 75%.
Consider `O=c1[nH]cc(F)c(=O)[nH]1` [5-FU, 5-fluorouracil], for which, in series [1], the “coefficient of the heart, liver, spleen, and kidney to the body weight” value is “no significant differences”; the body weight changes entry is “no significant differences”; the ALT/GPT amounted to 95.48 ± 12.86 IU/L; the AST/GOT is given as 245.71 ± 47.15 IU/L. In series [1], this compound displayed a BUN of 9.26 ± 2.23 mmol/L, a CRE of 32.95 ± 6.29 µmol/L and a UA of 84.52 ± 6.63 µmol/L. In addition, in the series on MCF-7 xenograft, the “tumor growth compared with the control” value is given as “significant reduction in tumor growth”.
For the compound `CO[C@H]1C[C@@H]2CC[C@@H](C)[C@@](O)(O2)C(=O)C(=O)N2CCCC[C@H]2C(=O)O[C@H]([C@H](C)C[C@@H]2CC[C@@H](O)[C@H](OC)C2)CC(=O)[C@H](C)/C=C(\C)[C@@H](O)[C@@H](OC)C(=O)[C@H](C)C[C@H](C)/C=C/C=C/C=C/1C` [Rapa, Rapamycin, reference compound], the “p62 level reduced by” value in the series with MCF-7 cells (MCF-7, 0.25 μM alone, 24 h) was 60%. In the series on MCF-7 cells (setting [2]), the Atg5 level result is reported as “increased” and the p62 level result is reported as “decreased”. Further, the LC3B-II level entry with MCF-7 cells (MCF-7, 24 h, Rapa 0.25 μM, NBT 12 μM + CQ 40 μM) is listed as “increased”.
Consider `Cn1cnc(N)c2ncnc1-2` [3-MA, 3-methyladenine, reference compound], for which the “effect on NBT-induced caspase-9 and PARP activation” value in the series on MCF-7 cells (MCF-7, 3-MA 5 mM with NBT 12 μM, 24 h) is reported as “inhibit”.
